Some test systems named below: U-251; ACHN; NCI-H23; A498; HCC 2998; SK-MEL-5; EKVX; OVCAR-5; HT-29; IGROV-1; SNB-19; DMS-273; DMS-114; RPMI-8226; HCT-15; LXFL 529; Hs-578T; NCI/ADR-RES; T47D; MDA-MB-231.
Holding throughout (assay): growth of human tumour cells (NCI), 48 h

Each structure is given as a SMILES string.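 1) Cells in 96-well plates. 2) Compound, 48 h, 5 concentrations. 3) Linear interpolation between surrounding doses. 4) Unreached endpoint = highest concentration. GI50 is the concentration that inhibits growth by half.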 Active and inactive are the calls of the source. Rule as the data show it: active = GI50 up to about 1.1 µM and inactive = higher.

Consider `O=C(/N=c1/[nH]/c(=N/C(=O)c2ccccc2)ss1)c1ccccc1`, for which the GI50 in the assay with U-251 was 7.55 µM (inactive); in the assay with ACHN it was 13.8 µM (inactive); in the assay on NCI-H23 it was 19.3 µM (inactive); in the assay with A498, 23.4 µM (inactive); in the assay with HCC 2998 it was 18 µM (inactive); in the assay with SK-MEL-5 it was 5.11 µM (inactive). Also, the GI50 in the assay with EKVX was 25.4 µM (inactive); in the assay with OVCAR-5 it was 31.7 µM (inactive); in the assay with HT-29, 16.6 µM (inactive); with IGROV-1, 6.64 µM (inactive); in the assay with SNB-19, 33.5 µM (inactive); in the assay with DMS-273, 23.1 µM (inactive). Also, the GI50 is 26.7 µM (inactive) in the assay with DMS-114, 6.35 µM (inactive) in the assay on RPMI-8226 and 21.4 µM with HCT-15.

Take `CC1CC(c2cccc3c2OCO3)=Nc2ccccc2S1` (stereo not given): the GI50 with ACHN, with NCI-H23, in the assay with A498, in the assay with HCC 2998, in the assay with LXFL 529 and in the assay with SK-MEL-5 was > 100 µM (inactive) throughout. Besides, the GI50 with EKVX, in the assay on OVCAR-5, in the assay on HT-29, in the assay with IGROV-1, in the assay on SNB-19 and in the assay with DMS-273 was > 100 µM (inactive) throughout. For the same compound, the GI50 in the assay on DMS-114 is 65.6 µM (inactive); in the assay with RPMI-8226, > 100 µM (inactive); in the assay with HCT-15 it was greater than 100 µM.

In the case of `CC(=O)OCC1OC(n2cc(F)c(=O)[nH]c2=O)C(NC(=O)N(CCCl)N=O)C(OC(C)=O)C1OC(C)=O` (stereo not given), the GI50 is 88.9 µM (inactive) in the assay with U-251; > 100 µM (inactive) with ACHN; > 100 µM (inactive) in the assay with NCI-H23; > 100 µM (inactive) in the assay on A498; > 100 µM (inactive) in the assay with LXFL 529; > 100 µM (inactive) in the assay on SK-MEL-5. Moreover, the GI50 is > 100 µM (inactive) in the assay with HT-29; > 100 µM (inactive) in the assay with IGROV-1; > 100 µM (inactive) in the assay with SNB-19; > 100 µM (inactive) in the assay on DMS-273; 81.3 µM (inactive) with DMS-114; > 100 µM (inactive) with RPMI-8226.

As for `C=C(CN(C)C)C(=O)c1ccc(Oc2ccccc2)cc1`, the GI50 with U-251 is 10.3 µM (inactive); with ACHN, 1.8 µM (inactive); with Hs-578T, 8.73 µM (inactive); in the assay with NCI-H23, 7.71 µM (inactive); in the assay with A498, 17.7 µM (inactive); in the assay on NCI/ADR-RES, 6.75 µM (inactive). The GI50 was 2.7 µM (inactive) in the assay on T47D; 17.5 µM (inactive) in the assay on HCC 2998; 2.2 µM (inactive) with LXFL 529; 7.21 µM (inactive) with SK-MEL-5; 16.9 µM (inactive) with EKVX; 5.81 µM (inactive) with MDA-MB-231. The GI50 with OVCAR-5 is 7.4 µM (inactive); in the assay with HT-29, 7.82 µM (inactive); with IGROV-1, 14.9 µM (inactive); in the assay with SNB-19 it was 9.64 µM (inactive); in the assay on DMS-273, 23.6 µM (inactive); with RPMI-8226, 0.962 µM (active). The compound further gave a GI50 with HCT-15 of 3.68 µM.

Consider `CCCCN(CCCC)CC(C(C)=O)C(c1ccccc1)c1c(O)c2ccccc2oc1=O` (stereo not given), for which the GI50 in the assay on U-251, with ACHN, in the assay with NCI-H23, with HCC 2998, in the assay on LXFL 529 and with SK-MEL-5 was > 100 µM (inactive) in each case. Also, the GI50 in the assay with EKVX, with OVCAR-5, in the assay on HT-29, in the assay on IGROV-1, in the assay on SNB-19 and in the assay with DMS-273 was > 100 µM (inactive) each time. The GI50 in the assay with DMS-114 was 91 µM (inactive); in the assay with RPMI-8226, > 100 µM (inactive); with HCT-15, greater than 100 µM.

Turning to `COC(=O)C(C(=O)C(=O)Nc1ccc(C)cc1)c1nc2ccc([N+](=O)[O-])cc2nc1O` (stereo not given), the GI50 in the assay on U-251 is 37.6 µM (inactive); in the assay with ACHN, > 100 µM (inactive); in the assay on NCI-H23, > 100 µM (inactive); in the assay with A498 it was > 100 µM (inactive); in the assay with HCC 2998 it was > 100 µM (inactive); in the assay with LXFL 529 it was 51.6 µM (inactive). Also, the GI50 was 49.1 µM (inactive) in the assay on SK-MEL-5; > 100 µM (inactive) in the assay on EKVX; > 100 µM (inactive) in the assay with OVCAR-5; > 100 µM (inactive) in the assay on HT-29; > 100 µM (inactive) in the assay on IGROV-1; > 100 µM (inactive) with SNB-19. Also, the GI50 in the assay with DMS-273 is > 100 µM (inactive); with DMS-114, 21.3 µM (inactive); in the assay with HCT-15, greater than 100 µM.

For `CN(C)CC/C(=N\Nc1ccc(Cl)cc1)c1ccccc1`, the GI50 with U-251 was 0.513 µM (active); with ACHN, 0.478 µM (active); in the assay with NCI-H23, 1.95 µM (inactive); with A498, 3.64 µM (inactive); in the assay with LXFL 529, 0.182 µM (active); with SK-MEL-5, 1.7 µM (inactive). Also, the GI50 in the assay on EKVX is 1.36 µM (inactive); in the assay with OVCAR-5 it was 1.24 µM (inactive); in the assay with HT-29, 1.28 µM (inactive); with IGROV-1, 1.28 µM (inactive); in the assay with SNB-19, 2.43 µM (inactive); in the assay on DMS-273, 0.366 µM (active). Also, the figures for the GI50 in the assay with DMS-114, in the assay with RPMI-8226 and with HCT-15 were 0.933 µM (active), 0.64 µM (active) and 0.327 µM, respectively.

For `O=C(C(=O)c1ccc(Cc2ccc(C(=O)C(=O)c3ccccc3)cc2)cc1)c1ccccc1`, the GI50 with U-251, in the assay with ACHN, in the assay on NCI-H23, with A498, in the assay with HCC 2998 and in the assay with LXFL 529 was > 100 µM (inactive) each time. For the same compound, the GI50 in the assay with SK-MEL-5, in the assay with EKVX, with OVCAR-5, in the assay on HT-29, in the assay with IGROV-1 and with SNB-19 was > 100 µM (inactive) throughout. For the same compound, the GI50 was > 100 µM (inactive) in the assay with DMS-273, > 100 µM (inactive) with DMS-114 and greater than 100 µM with HCT-15.

Turning to `CC(C)(c1ccc(C=O)o1)c1ccc(C(C)(C)c2ccc(C=O)o2)o1`, the GI50 in the assay with U-251, with ACHN, with NCI-H23, in the assay on A498, in the assay on HCC 2998 and in the assay with LXFL 529 was > 100 µM (inactive) throughout. Besides, the GI50 with EKVX, in the assay on OVCAR-5, with HT-29, in the assay on IGROV-1, with SNB-19 and with DMS-273 was > 100 µM (inactive) in each case.

As to `COc1ccc2c(c1)C=C(C(C)(C)C)NS2(=O)=O`, the GI50 in the assay on U-251, in the assay on ACHN, in the assay on NCI-H23, with A498, in the assay on HCC 2998 and with LXFL 529 was > 100 µM (inactive) throughout. The GI50 in the assay with SK-MEL-5, in the assay with EKVX, with OVCAR-5, in the assay with HT-29, in the assay with IGROV-1 and with SNB-19 was > 100 µM (inactive) each time. The GI50 is > 100 µM (inactive) in the assay with DMS-273, > 100 µM (inactive) in the assay on DMS-114 and greater than 100 µM with HCT-15.

`CS/C(=N/C#N)NCCc1c[nH]c2ccccc12`: the GI50 in the assay with U-251 is > 100 µM (inactive); with ACHN, 25.1 µM (inactive); in the assay on NCI-H23, > 100 µM (inactive); with HCC 2998 it was > 100 µM (inactive); in the assay on LXFL 529, > 100 µM (inactive); with SK-MEL-5, 76 µM (inactive). Further, the GI50 in the assay on EKVX was 18 µM (inactive); in the assay with OVCAR-5, > 100 µM (inactive); in the assay with HT-29, 98.4 µM (inactive); with IGROV-1, > 100 µM (inactive); with SNB-19, > 100 µM (inactive); in the assay with DMS-273 it was > 100 µM (inactive). In addition, the results for the GI50 in the assay with DMS-114, in the assay on RPMI-8226 and with HCT-15 were 60.1 µM (inactive), 96.8 µM (inactive) and greater than 100 µM, respectively.

Consider `CCCn1c(SCC)c2cc3cc4ccccc4cc3cc2c1-c1nc(F)nc(F)n1`, for which the GI50 in the assay with ACHN, in the assay with NCI-H23, in the assay with HCC 2998, in the assay with LXFL 529, in the assay with SK-MEL-5 and in the assay with EKVX was > 100 µM (inactive) each time. Also, the GI50 with OVCAR-5, with HT-29, in the assay on IGROV-1, in the assay with SNB-19, in the assay on DMS-273 and with DMS-114 was > 100 µM (inactive) each time. For the same compound, the values for the GI50 with RPMI-8226 and in the assay on HCT-15 were > 100 µM (inactive) and greater than 100 µM, respectively.

Consider `Cc1nc(Nc2ccccc2)sc1C(=O)NNc1ccc([N+](=O)[O-])cc1[N+](=O)[O-]`, for which the GI50 in the assay with U-251 was 38.6 µM (inactive); with ACHN, 14.2 µM (inactive); with NCI-H23, 17.5 µM (inactive); in the assay on HCC 2998, 43.7 µM (inactive); in the assay with LXFL 529, 28.7 µM (inactive); with SK-MEL-5, 25.5 µM (inactive). Besides, the GI50 in the assay on EKVX was 18.9 µM (inactive); with OVCAR-5, 33.7 µM (inactive); in the assay with HT-29 it was 35 µM (inactive); with IGROV-1, 45.9 µM (inactive); in the assay with SNB-19, 47.1 µM (inactive); with DMS-273, 25.7 µM (inactive). For the same compound, the GI50 was 23.3 µM (inactive) with DMS-114 and 26.2 µM in the assay with HCT-15.

In the case of `CC(=O)c1cccc(N2COC(C)(C)c3nc4ccccc4n3C2)c1`, the GI50 in the assay with U-251, in the assay with ACHN, in the assay with NCI-H23, in the assay on A498, in the assay with HCC 2998 and with LXFL 529 was > 100 µM (inactive) in each case. Moreover, the GI50 in the assay on EKVX, with HT-29, in the assay on IGROV-1, in the assay with SNB-19, in the assay on DMS-273 and in the assay with DMS-114 was > 100 µM (inactive) in each case. Also, the GI50 with RPMI-8226 is > 100 µM (inactive); with HCT-15, greater than 100 µM.

For the origin of these results see ChEMBL document CHEMBL1201862, “PubChem BioAssay data set” (2004).
